Data published in patent US8673816B2, “Surfactants in agrochemical formulations” (Croda, Inc., priority 2009, dated 2014).

Tested on: oil seed rape plants (Brassica napus)
Assay: Greenhouse trial of surfactants as adjuvants for Glyphosate
Type: in vivo
Settings: for % control: fresh weight vs untreated controls
Excerpt: A greenhouse trial was run to evaluate the effectiveness of the surfactants of the invention as adjuvants for Glyphosate in controlling the growth of (non-roundup ready) oil seed rape plants (Brassica napus). The trial used surfactant of the invention (SE1) and control adjuvant (FAE) at 3 rates, with 3 rates of glyphosate application, and controls including 3 glyphosate rates without surfactant, all grown in randomised blocks. 10 replications were used for each application, with 1 pot (7×7×8 cm) per plot and at least 4 plants per pot, in Levington M2 medium. The greenhouse conditions of temperature and humidity were recorded and watering was carried out by capillary matting. Additional lighting was provided over natural daylight. The glyphosate treatments were carried out using a pre-calibrated Mardrive greenhouse cabinet sprayer at a volume rate of about 200 I.ha^−1. […]
The type and application rate (Rate in g.ha^−1) of nominally 100% adjuvant, the application rate (Rate in g.ha^−1 active) of glyphosate, the glyphosate to adjuvant weight ratio (G:A) applied to the test plants and the visual assessment (%), and the % control are set out in Table AEA1 below.

[1] = 28 d, glyphosate 125 g.ha^−1, no adjuvant
[2] = 28 d, glyphosate 250 g.ha^−1, no adjuvant
[3] = 28 d, glyphosate 500 g.ha^−1, no adjuvant

## O=C(O)CNCP(=O)(O)O [Glyphosate, N-phosphonomethyl glycine]
15 d, glyphosate 125 g.ha^−1, no adjuvant
  % damage: 0%
15 d, glyphosate 250 g.ha^−1, no adjuvant
  % damage: 1.5%
15 d, glyphosate 500 g.ha^−1, no adjuvant
  % damage: 11%
21 d, glyphosate 125 g.ha^−1, no adjuvant
  % damage: 5%
21 d, glyphosate 250 g.ha^−1, no adjuvant
  % damage: 5%
21 d, glyphosate 500 g.ha^−1, no adjuvant
  % damage: 33%
[1]
  % control: 0.2%
  % damage: 0%
[2]
  % control: −6.4%
  % damage: 0%
[3]
  % control: 49.5%
  % damage: 52%
